# Like-named read-outs stand apart in the source and are kept apart here.
# Tests used:
# [1] = test system: luteinizing hormone (LH) in circulating blood; assay: Effect of GnRH analogs on LH levels in blood of rats (RIA); assay type: in vivo, rat; set-up: LH 180 min: unit not given here
# Description: The experiment was carried out with 55 female Wistar 8-week old rates, equally distributed into one of the eleven test groups as detailed in the following Table 3:
# The compounds were administered either orally (PO) or intraperitoneally (IP) in a molar concentration of 0.4 nmol/rat (equivalent to 0.5 μg/rat of D-Lys^6-GnRH and to 0.6 μg/rat of Fms- or Fmoc-D-Lys^6-GnRH), or of 40 nmol/rat (equivalent in 50 μg/rat of D-Lys^6-GnRH and to 60 μg/rat of Fms- or Fmoc-D-Lys^6-GnRH), in 0.5 ml PBS. Ninety and 180 minutes after administration of the appropriate treatment, blood samples were collected (1 ml), the serum was separated, and the detection of LH levels was carried out by radioimmunoassay (RIA) as previously described (Rahimipour, S., et Al. J. Med. Chem. 2001, 44, 3645-3652).
# [2] = test system: acetylcholine-induced abdominal constriction; assay: Acetylcholine-induced abdominal constriction in mice (antinociceptive activity); assay type: in vivo; details: for activity after SC or PO administration: Fmoc-Ala 25 mg/kg; for activity after SC or PO administration / inhibition of acetylcholine-induced abdominal constriction, dose response (FIG. 3): Met-enkephalin 50 mg/kg; for antinociceptive activity in the mouse: comparable doses; for activity after SC or PO administration / antinociceptive activity in the mouse: SC or PO; for inhibition of acetylcholine-induced abdominal constriction, dose response (FIG. 3): 30 minutes after SC, Fmoc-Met-enkephalin 50 and 25 mg/kg, p<0.05
# Description: The method used in the experiments herein for evaluating the antinociceptive properties of Fmoc-Met-enkephalin is a standard method for evaluating compounds having analgesic activity such as non-steroidal anti-inflammatory agents, opioids, and other analgesics, and consists in administering acetylcholine I.P. to mice, treating the mice with the test compound and evaluating the inhibition of abdominal constriction induced by the acetylcholine.
# Thus, 120 healthy CD-1, Swiss derived, albino male mice (obtained from Charles River Breeding Labs, Wilmington, Mass.) were weighed, examined for health and equally distributed into one of the 12 test groups shown in Table 1.
# SC administration was carried out with a standard syrine and needle and given in a volume of 10 ml per kg. Oral administration was performed using a standard curved oval gavage needle and given in a volume of 10 ml per kg. Thirty minutes after administration of the appropriate treatment, acetylcholine (5.5 mg/kg) was injected I.P. The mice were then placed in large plastic boxes and observed for the occurrence of a single abdominal constriction (defined as a wave of construction and elongation passing caudally along the abdominal wall, accompanied by a twisting of the trunk and followed by extension of the hind limbs). […] Acetylcholine-induced abdominal constriction was repeated again at approximately 120 minutes after test compound administration.
# Observations included gross evaluation of the skin and fur, eyes and mucous membranes, respiratory, circulatory, autonomic and central nervous system, somatomotor activity and behavioral patterns. Particular attention was directed to observation of tremors, convulsions, salivation, diarrhea, sleep and coma. A non-parametric analysis of quantal data (Fisher exact test) was used to determine statistical significance of results.
# Candida albicans = details: 20 IU; Agar-RPMI plates confluent with Candida albicans, 48 hr at 30° C.; cited from earlier work
# [3] = Description: (§1) The experiment was carried out with a single mice or rat per compound (per metabolic cage) and it was repeated 7 times with rats and twice with mice using the protocol below. The fluorescent feature of doxorubicin enables the observation of its presence in the urine following different modes of administration.
# The experiments were repeated with mice.
# [4] = rats; Dox 10 μg/g, Fms-Dox 15 μg/g I.P.
# Description: as §1
# Urine was collected several times after administration and the fluorescence emission was measured by a fluorometer. The urine collected from the untreated groups was used as a blank.
# Urine was collected at 1.25, 2.5, 4 and 6 hours after administration and fluorescence intensity was measured in a fluorometer (SPECTRAmax and GEMINI of Molecular Devices Sunnyvale Fluorometer, CA, USA). Since doxorubicin is a fluorescent material, when it absorbs light energy at a wavelength of 488 nm (excitation), it undergoes an electronic state change and instantaneously emits light at 595 nm (emission). The Relative Fluorescence Units (RFU) shown in FIG. 1 indicate the peaks of light emitted at 595 nm resulting from the absorption of Dox at 488 nm.
# F10.9 melanoma cell line = assay: Inhibition of proliferation of cancer cells in vitro, crystal violet staining; assay type: cell-based; details: F10.9 melanoma cells, 96 hours, crystal violet staining (FIG. 2); read-out: IC50 (the concentration at which cell growth is inhibited by 50%)
# Description: (§2) The efficacy of native Dox and FMS-Dox on the inhibition of proliferation of cancer cells was tested in vitro with F10.9 melanoma cell line. On day (−1) cells, were seeded in a 24-well plate (5×10^3 cells/ml/well). On day (0), cells were incubated with Dox and FMS-Dox at logarithmic dilutions from 100 μM to 0.001 μM. Survival of cells at 96 hours was determined, using the crystal violet staining method. Optical density (OD) was measured at 620 nm in an ELISA reader. The OD reading was correlated to % viable cells. When the cells were untreated the absorbance was at a maximum. IC50 (the concentration at which cell growth is inhibited by 50%) was determined. The results in FIG. 2 show IC50 values of 0.03 μM and 0.09 μM for native Dox and FMS-Dox, respectively. […] The was confirmed by HPLC analysis whereby the compound found in the growing cell medium after 96 hr corresponded to native doxorubicin.
# [5] = HPLC analysis of growing cell medium (cleavage of Fms-Dox); assay type: in vitro ADME; details: growing cell medium after 96 hr
# Description: as §2
# [6] = test system: Escherichia coli (E. coli strain N-4156-W.T); assay: Antibacterial potency: E. coli replication, absorbance at 600 nm; assay type: cell-based; details: 37° C., L.B. medium, O.D. 600 nm
# Description: A suspension of Escherichia coli (E. coli strain N-4156-W.T, 1% V/V in L.B. medium) is divided into plastic tubes (0.5 ml per tube) and incubated in a shaking water bath at 37° C., in either the absence or the presence of increasing concentrations of gentamicin (0.02-50 μM) and increasing concentrations of (Fms)3-gentamicin (0.02-50 μM). E. coli replication is evaluated by measuring the absorbance at 600 nm. Incubation is terminated when O.D600 nm in the tubes containing no gentamicin reaches a value of 0.6±0.1. Under our assay conditions, native gentamicin inhibited half-maximally E. coli replication at a concentration of 0.22±0.02 μM (0.1 μg/ml).
# [7] = 0.4 nmol/rat (0.5 or 0.6 μg/rat) IP
# [8] = 0.4 nmol/rat (0.5 or 0.6 μg/rat) PO
# [9] = 40 nmol/rat (50 or 60 μg/rat) PO
compound,measurement,setting,value
5-oxo-Pro-His-Trp-Ser-Tyr-(Fmoc)D-Lys-Leu-Arg-Pro-Gly-NH2 [Fmoc-D-Lys^6-GnRH],LH 90 min,[1]; [7],50 ng/mL
same,LH 180 min,[1]; [7],17
same,LH 90 min,[1]; [8],0 ng/mL
same,LH 180 min,[1]; [8],0
same,LH 90 min,[1]; [9],0 ng/mL
same,LH 180 min,[1]; [9],0
same,activity when administered IP,[1],active
5-oxo-Pro-His-Trp-Ser-Tyr-(Fms)D-Lys-Leu-Arg-Pro-Gly-NH2 [Fms-D-Lys^6-GnRH],LH 90 min,[1]; [7],80 ng/mL
same,LH 180 min,[1]; [7],25
same,LH 90 min,[1]; [8],0.4 ng/mL
same,LH 180 min,[1]; [8],0
same,LH 90 min,[1]; [9],80 ng/mL
same,LH 180 min,[1]; [9],35
same,activity when administered IP,[1],active
same,effect of oral administration on LH levels in the blood circulation,"[1]; oral, 90 and 180 min after administration",elevation of the LH levels
"C[C@H](NC(=O)OCC1c2ccccc2-c2ccccc21)C(=O)O [Fmoc-Ala, reference compound]",# mice abdominal construction,"[2]; 25 mg/kg PO, 30 minutes",10/10
same,# mice abdominal construction,"[2]; 25 mg/kg PO, 120 minutes",8/10
same,% inhibition,"[2]; 25 mg/kg PO, 120 minutes",20%
same,# mice abdominal construction,"[2]; 25 mg/kg SC, 30 minutes",10/10
same,# mice abdominal construction,"[2]; 25 mg/kg SC, 120 minutes",10/10
same,activity after SC or PO administration,[2],not active
same,antinociceptive activity in the mouse,[2],neither Met-enkephalin nor Fmoc-Ala is active
"C[C@@H]1[C@H](O)[C@@H](C)/C=C/C=C/C=C/C=C/C=C/C=C/C=C/[C@H](O[C@@H]2O[C@H](C)[C@@H](O)[C@H](N)[C@@H]2O)C[C@@H]2O[C@](O)(C[C@@H](O)C[C@@H](O)[C@H](O)CC[C@@H](O)C[C@@H](O)CC(=O)O[C@H]1C)C[C@H](O)[C@H]2C(=O)O [native Amphotericin B, Amphotericin B]",clear zone diameter,Candida albicans,1.5 cm
"COc1cccc2c1C(=O)c1c(O)c3c(c(O)c1C2=O)C[C@@](O)(C(=O)CO)C[C@@H]3O[C@H]1C[C@H](N)[C@H](O)[C@H](C)O1 [native Dox, Doxorubicin]",absorption following I.P. administration (urine fluorescence),"[3]; mice, I.P.",absorbed
same,oral absorption (urine fluorescence),"[3]; mouse, in vivo, po",orally nonabsorbed
same,absorption following I.P. administration (urine fluorescence),[4],absorbed
same,IC50,F10.9 melanoma cell line,30 nM
(X1)Tyr-Gly-Gly-Phe-Met [Fmoc-Met-Enk],# mice abdominal construction,"[2]; 6.25 mg/kg SC, 30 minutes",9/10
same,% inhibition,"[2]; 6.25 mg/kg SC, 30 minutes",10%
same,# mice abdominal construction,"[2]; 6.25 mg/kg SC, 120 minutes",8/10
same,% inhibition,"[2]; 6.25 mg/kg SC, 120 minutes",20%
same,# mice abdominal construction,"[2]; 12.5 mg/kg PO, 30 minutes",6/10
same,% inhibition,"[2]; 12.5 mg/kg PO, 30 minutes",40%
same,# mice abdominal construction,"[2]; 12.5 mg/kg PO, 120 minutes",10/10
same,# mice abdominal construction,"[2]; 12.5 mg/kg SC, 30 minutes",7/10
same,% inhibition,"[2]; 12.5 mg/kg SC, 30 minutes",30%
same,# mice abdominal construction,"[2]; 12.5 mg/kg SC, 120 minutes",8/10
same,% inhibition,"[2]; 12.5 mg/kg SC, 120 minutes",20%
same,# mice abdominal construction,"[2]; 25 mg/kg PO, 30 minutes",6/10
same,% inhibition,"[2]; 25 mg/kg PO, 30 minutes",40%
same,# mice abdominal construction,"[2]; 25 mg/kg PO, 120 minutes",10/10
same,# mice abdominal construction,"[2]; 25 mg/kg SC, 30 minutes",6/10
same,% inhibition,"[2]; 25 mg/kg SC, 30 minutes",40%
same,# mice abdominal construction,"[2]; 25 mg/kg SC, 120 minutes",6/10
same,% inhibition,"[2]; 25 mg/kg SC, 120 minutes",40%
same,activity at 120 minutes after drug administration,"[2]; 25 mg/kg SC, 120 minutes",active
same,# mice abdominal construction,"[2]; 50 mg/kg PO, 30 minutes",8/10
same,% inhibition,"[2]; 50 mg/kg PO, 30 minutes",20%
same,# mice abdominal construction,"[2]; 50 mg/kg PO, 120 minutes",6/10
same,% inhibition,"[2]; 50 mg/kg PO, 120 minutes",40%
same,# mice abdominal construction,"[2]; 50 mg/kg SC, 30 minutes",5/10
same,% inhibition,"[2]; 50 mg/kg SC, 30 minutes",50%
same,# mice abdominal construction,"[2]; 50 mg/kg SC, 120 minutes",9/10
same,% inhibition,"[2]; 50 mg/kg SC, 120 minutes",10%
same,inhibition of acetylcholine-induced abdominal constriction (statistical significance),"[2]; 50 and 25 mg/kg SC and 25 and 12.5 mg/kg PO, 30 minutes",statistically significant inhibition
same,"inhibition of acetylcholine-induced abdominal constriction, dose response (FIG. 3)",[2],statistically significant
same,antinociceptive activity in the mouse,[2],significant antinociceptive activity
same,signs of CNS depression or sedation,"[2]; mice, during the experimental period",did not show signs of CNS depression or sedation
same,statistically significant activity compared to Fmoc-Ala,"[2]; oral administration, any dose, 120 minutes",did not show statistically significant activity
same,inhibition of acetylcholine-induced abdominal constriction after oral administration (FIG. 4),"[2]; orally, 25 and 12.5 mg/kg after 30 minutes and 50 mg/kg after 120 minutes",statistically significant inhibition
Fms-doxorubicin,cleavage in the cell medium (HPLC analysis),[5],full recovery of the native doxorubicin
same,IC50,F10.9 melanoma cell line,90 nM
"Tyr-Gly-Gly-Phe-Met [Met-Enk, reference compound]",# mice abdominal construction,"[2]; 50 mg/kg PO, 30 minutes",9/10
same,% inhibition,"[2]; 50 mg/kg PO, 30 minutes",10%
same,# mice abdominal construction,"[2]; 50 mg/kg PO, 120 minutes",9/10
same,% inhibition,"[2]; 50 mg/kg PO, 120 minutes",10%
same,# mice abdominal construction,"[2]; 50 mg/kg SC, 30 minutes",8/10
same,% inhibition,"[2]; 50 mg/kg SC, 30 minutes",20%
same,# mice abdominal construction,"[2]; 50 mg/kg SC, 120 minutes",10/10
same,"inhibition of acetylcholine-induced abdominal constriction, dose response (FIG. 3)",[2],not significantly active
same,activity after SC or PO administration,[2],not active
same,antinociceptive activity in the mouse,[2],neither Met-enkephalin nor Fmoc-Ala is active
gentamicin [native gentamicin],concentration inhibiting half-maximally E. coli replication,[6],0.1 µg/mL
same,IC50,[6]; read-out: concentration inhibiting half-maximally E. coli replication,220 ± 20 nM
